Measurements as given in PMC12999171 (eLife, 2026).
pEC50: −log10 of the molar value.

What was measured:
iGABASnFR1 = iGABASnFR1 (Pseudomonas fluorescens, UniProt A0A1B3D787, F126L/N285A); assay: biochemical; format: binding
Excerpt: (§1) The fluorescence data was fitted to the Hill function in GraphPad Prism to determine affinity values.

iGABASnFR2n = iGABASnFR2n (Pseudomonas fluorescens, UniProt A0A1B3D787, F126L/F129H/N285A/S124A); assay: biochemical; format: binding
Sequence of iGABASnFR2n (A0A1B3D787 27-341, stated change not applied): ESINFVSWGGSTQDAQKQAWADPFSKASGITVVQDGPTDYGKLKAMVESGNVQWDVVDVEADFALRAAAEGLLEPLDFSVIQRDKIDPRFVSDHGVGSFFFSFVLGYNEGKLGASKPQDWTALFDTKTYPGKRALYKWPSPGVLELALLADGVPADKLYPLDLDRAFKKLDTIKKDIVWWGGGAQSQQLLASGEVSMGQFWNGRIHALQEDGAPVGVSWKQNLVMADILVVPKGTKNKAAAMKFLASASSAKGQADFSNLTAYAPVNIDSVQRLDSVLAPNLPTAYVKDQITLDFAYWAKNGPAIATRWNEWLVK
Sequence of iGABASnFR2n (P42212 whole entry Y145W/R168P partner): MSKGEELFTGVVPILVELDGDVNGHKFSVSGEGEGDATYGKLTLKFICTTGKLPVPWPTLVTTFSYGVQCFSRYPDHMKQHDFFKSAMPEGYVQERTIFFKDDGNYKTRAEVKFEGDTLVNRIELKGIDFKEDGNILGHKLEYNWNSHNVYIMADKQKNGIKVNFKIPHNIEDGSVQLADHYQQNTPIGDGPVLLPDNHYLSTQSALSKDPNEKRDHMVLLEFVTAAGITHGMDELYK
Excerpt: as §1

Sequence of iGABASnFR1 (A0A1B3D787 27-341, stated change not applied): as the sequence (A0A1B3D787 27-341, stated change not applied) above
Sequence of iGABASnFR1 (P42212 with tags, fused parts or gaps S30R/Y39N/F64L/F99S/N105T/Y145W partner): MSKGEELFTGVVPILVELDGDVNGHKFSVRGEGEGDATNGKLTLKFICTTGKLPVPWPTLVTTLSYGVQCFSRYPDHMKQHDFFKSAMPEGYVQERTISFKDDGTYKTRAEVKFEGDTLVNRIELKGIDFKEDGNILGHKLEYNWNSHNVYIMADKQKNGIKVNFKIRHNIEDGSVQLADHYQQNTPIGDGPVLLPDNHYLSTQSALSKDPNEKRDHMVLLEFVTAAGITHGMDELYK

Compound	pEC50 (iGABASnFR1)	pEC50 (iGABASnFR2n)
C=CC(N)CCC(=O)O (centres unmarked) [vigabatrin, reference compound]	2.27	–
NCc1cc(=O)[nH]o1 [muscimol, reference compound]	5.24	5.58
CC[C@H](C)[C@H](N)C(=O)O [isoleucine]	5.61	3.95
N=C(N)NCCC[C@H](N)C(=O)O [arginine]	4.23	5.47
C[C@@H](O)[C@H](N)C(=O)O [threonine]	4.70	2.05
N[C@@H](CC(=O)O)C(=O)O [aspartate]	5.62	6.28
NCCc1c[nH]cn1 [histamine]	–	2.05
N[C@@H](Cc1ccccc1)C(=O)O [phenylalanine]	5.43	2.94
O=C(O)[C@@H]1CCCN1 [proline]	–	2.60
NCC(CC(=O)O)c1ccc(Cl)cc1 (centres unmarked) [baclofen, reference compound]	2.13	5.20
N[C@@H](CO)C(=O)O [serine]	4.29	2.26
Cc1ccsc1C(=CCCN1CCC[C@@H](C(=O)O)C1)c1sccc1C [tiagabine, reference compound]	–	2.65
C[C@H](N)C(=O)O [alanine]	2.77	3.24
CSCC[C@H](N)C(=O)O [methionine]	6.38	2.05
CC(C)[C@H](N)C(=O)O [valine]	5.87	5.83
CN1CCc2cc3c(cc2[C@H]1[C@@H]1OC(=O)c2c1ccc1c2OCO1)OCO3 [bicuculline, reference compound]	–	2.05
NC(=O)C[C@H](N)C(=O)O [asparagine]	2.07	2.26
N[C@@H](Cc1c[nH]c2ccccc12)C(=O)O [tryptophan]	–	6.40
NCCCC[C@H](N)C(=O)O [lysine]	4.11	3.13
